Assays:
[1] = biological target: Epidermal growth factor receptor (Homo sapiens, UniProt P00533, L858R/T790M); assay: Inhibition of EGFR L858R/T790M mutant (unknown origin) by mobility shift assay
[2] = biological target: T1, Epidermal growth factor receptor (Homo sapiens, UniProt P00533); assay: Inhibition of wild type EGFR (unknown origin) by mobility shift assay
[3] = tested on: NCI-H1975; assay: Antiproliferative activity against human NCI-H1975 cells harboring EGFR L858R/T790M mutant assessed as inhibition of cell growth incubated for 72 hrs under hypoxia condition by SRB assay; format: functional, cell-based; details: NCI-H1975, 72 h
[4] = Ratio of IC50 for antiproliferative activity against human NCI-H1975 cells harboring EGFR L858R/T790M mutant under normoxia condition to IC50 for antiproliferative activity against human NCI-H1975 cells harboring EGFR L858R/T790M mutant under hypoxia condition; format: functional
[5] = tested on: HCC827; assay: Antiproliferative activity against human HCC827 cells harboring EGFR del19 mutant assessed as inhibition of cell growth incubated for 72 hrs under normoxia condition by SRB assay; format: functional, cell-based; details: HCC827, 72 h
[6] = biological target: Fibroblast growth factor receptor 1 (Homo sapiens) (UniProt P11362); assay: Inhibition of FGFR1 (unknown origin) at 1 uM relative to control
[7] = biological target: Tyrosine-protein kinase SYK (Homo sapiens) (UniProt P43405); assay: Inhibition of SYK (unknown origin) at 1 uM relative to control
[8] = biological target: High affinity nerve growth factor receptor (Homo sapiens) (UniProt P04629); assay: Inhibition of TRKA (unknown origin) at 1 uM relative to control
[9] = biological target: Tyrosine-protein kinase JAK3 (Homo sapiens) (UniProt P52333); assay: Inhibition of JAK3 (unknown origin) at 1 uM relative to control
[10] = biological target: Hepatocyte growth factor receptor (Homo sapiens) (UniProt P08581); assay: Inhibition of MET (unknown origin) at 1 uM relative to control
[11] = biological target: Mitogen-activated protein kinase 10 (Homo sapiens) (UniProt P53779); assay: Inhibition of JNK3 (unknown origin) at 1 uM relative to control
[12] = biological target: T2, Proto-oncogene tyrosine-protein kinase ROS (Homo sapiens, UniProt P08922); assay: Inhibition of ROS1 (unknown origin) at 1 uM relative to control
T2 sequence (P08922 whole entry): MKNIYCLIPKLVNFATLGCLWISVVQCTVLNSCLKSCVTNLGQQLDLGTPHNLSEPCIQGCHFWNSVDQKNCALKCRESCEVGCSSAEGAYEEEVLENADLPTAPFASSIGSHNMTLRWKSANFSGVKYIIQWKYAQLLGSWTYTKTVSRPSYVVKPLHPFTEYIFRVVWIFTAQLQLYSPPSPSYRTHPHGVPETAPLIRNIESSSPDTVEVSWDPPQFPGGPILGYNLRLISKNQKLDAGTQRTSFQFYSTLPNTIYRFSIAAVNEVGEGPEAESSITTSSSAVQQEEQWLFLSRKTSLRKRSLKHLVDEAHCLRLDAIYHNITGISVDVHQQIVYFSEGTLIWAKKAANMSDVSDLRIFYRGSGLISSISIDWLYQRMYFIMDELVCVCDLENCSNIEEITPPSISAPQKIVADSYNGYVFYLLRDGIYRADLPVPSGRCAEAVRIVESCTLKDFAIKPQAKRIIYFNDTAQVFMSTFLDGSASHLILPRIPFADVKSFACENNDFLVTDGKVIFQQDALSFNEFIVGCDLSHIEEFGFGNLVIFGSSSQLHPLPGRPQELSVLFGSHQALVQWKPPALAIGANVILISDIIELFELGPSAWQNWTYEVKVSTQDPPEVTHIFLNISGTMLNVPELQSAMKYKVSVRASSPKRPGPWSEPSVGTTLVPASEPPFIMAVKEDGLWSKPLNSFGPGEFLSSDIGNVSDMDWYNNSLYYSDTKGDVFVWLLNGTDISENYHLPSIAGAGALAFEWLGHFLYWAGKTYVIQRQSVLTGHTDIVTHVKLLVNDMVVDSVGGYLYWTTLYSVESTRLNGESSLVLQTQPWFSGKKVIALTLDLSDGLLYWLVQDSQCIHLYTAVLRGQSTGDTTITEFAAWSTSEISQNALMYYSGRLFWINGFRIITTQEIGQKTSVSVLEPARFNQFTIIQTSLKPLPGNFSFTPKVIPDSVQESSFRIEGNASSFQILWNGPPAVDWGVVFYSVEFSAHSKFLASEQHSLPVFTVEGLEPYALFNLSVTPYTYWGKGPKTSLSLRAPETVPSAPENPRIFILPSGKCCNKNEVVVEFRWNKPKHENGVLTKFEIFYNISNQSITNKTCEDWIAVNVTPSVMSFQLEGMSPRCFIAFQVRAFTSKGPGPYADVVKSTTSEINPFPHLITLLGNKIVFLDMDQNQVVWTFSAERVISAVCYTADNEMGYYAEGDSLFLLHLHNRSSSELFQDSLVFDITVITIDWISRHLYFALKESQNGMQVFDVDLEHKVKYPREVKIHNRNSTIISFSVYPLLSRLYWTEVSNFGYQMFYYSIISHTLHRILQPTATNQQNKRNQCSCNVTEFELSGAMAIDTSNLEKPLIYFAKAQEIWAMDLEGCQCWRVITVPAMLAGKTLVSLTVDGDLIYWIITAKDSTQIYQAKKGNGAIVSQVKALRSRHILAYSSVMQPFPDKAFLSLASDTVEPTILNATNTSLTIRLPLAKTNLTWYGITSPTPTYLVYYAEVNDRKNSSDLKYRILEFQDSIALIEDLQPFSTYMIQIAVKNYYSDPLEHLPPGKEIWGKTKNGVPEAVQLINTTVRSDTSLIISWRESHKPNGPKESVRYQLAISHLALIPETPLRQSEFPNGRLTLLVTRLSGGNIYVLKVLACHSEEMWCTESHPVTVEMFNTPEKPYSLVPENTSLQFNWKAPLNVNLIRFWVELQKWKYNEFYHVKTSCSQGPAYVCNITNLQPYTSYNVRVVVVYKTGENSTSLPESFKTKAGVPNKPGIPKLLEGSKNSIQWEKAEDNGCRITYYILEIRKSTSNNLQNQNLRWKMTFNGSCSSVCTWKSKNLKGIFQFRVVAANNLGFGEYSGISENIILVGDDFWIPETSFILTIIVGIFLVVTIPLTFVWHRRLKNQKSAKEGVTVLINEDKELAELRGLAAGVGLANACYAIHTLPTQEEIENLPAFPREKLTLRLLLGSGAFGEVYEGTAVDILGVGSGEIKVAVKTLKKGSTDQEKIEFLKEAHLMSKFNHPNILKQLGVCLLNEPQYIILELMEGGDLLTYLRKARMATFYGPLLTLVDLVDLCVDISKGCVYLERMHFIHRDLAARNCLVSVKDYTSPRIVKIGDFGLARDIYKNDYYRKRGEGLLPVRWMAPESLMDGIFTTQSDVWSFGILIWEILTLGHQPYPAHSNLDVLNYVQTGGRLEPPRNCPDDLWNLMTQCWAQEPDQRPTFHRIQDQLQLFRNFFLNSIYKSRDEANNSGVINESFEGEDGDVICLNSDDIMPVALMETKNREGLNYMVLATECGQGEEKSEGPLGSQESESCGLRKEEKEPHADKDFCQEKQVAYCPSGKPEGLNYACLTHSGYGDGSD

[13] = biological target: Receptor-type tyrosine-protein kinase FLT3 (Homo sapiens) (UniProt P36888); assay: Inhibition of FLT3 (unknown origin) at 1 uM relative to control
[14] = biological target: Tyrosine-protein kinase BTK (Homo sapiens) (UniProt Q06187); assay: Inhibition of BTK (unknown origin) at 1 uM relative to control
[15] = biological target: Vascular endothelial growth factor receptor 3 (Homo sapiens, UniProt P35916); assay: Inhibition of FLT4 (unknown origin) at 1 uM relative to control
[16] = biological target: ALK tyrosine kinase receptor (Homo sapiens) (UniProt Q9UM73); assay: Inhibition of ALK (unknown origin) at 1 uM relative to control
[17] = biological target: T3, Platelet-derived growth factor receptor alpha (Homo sapiens, UniProt P16234); assay: Inhibition of PDGFRalpha (unknown origin) at 1 uM relative to control
T3 sequence (P16234 whole entry): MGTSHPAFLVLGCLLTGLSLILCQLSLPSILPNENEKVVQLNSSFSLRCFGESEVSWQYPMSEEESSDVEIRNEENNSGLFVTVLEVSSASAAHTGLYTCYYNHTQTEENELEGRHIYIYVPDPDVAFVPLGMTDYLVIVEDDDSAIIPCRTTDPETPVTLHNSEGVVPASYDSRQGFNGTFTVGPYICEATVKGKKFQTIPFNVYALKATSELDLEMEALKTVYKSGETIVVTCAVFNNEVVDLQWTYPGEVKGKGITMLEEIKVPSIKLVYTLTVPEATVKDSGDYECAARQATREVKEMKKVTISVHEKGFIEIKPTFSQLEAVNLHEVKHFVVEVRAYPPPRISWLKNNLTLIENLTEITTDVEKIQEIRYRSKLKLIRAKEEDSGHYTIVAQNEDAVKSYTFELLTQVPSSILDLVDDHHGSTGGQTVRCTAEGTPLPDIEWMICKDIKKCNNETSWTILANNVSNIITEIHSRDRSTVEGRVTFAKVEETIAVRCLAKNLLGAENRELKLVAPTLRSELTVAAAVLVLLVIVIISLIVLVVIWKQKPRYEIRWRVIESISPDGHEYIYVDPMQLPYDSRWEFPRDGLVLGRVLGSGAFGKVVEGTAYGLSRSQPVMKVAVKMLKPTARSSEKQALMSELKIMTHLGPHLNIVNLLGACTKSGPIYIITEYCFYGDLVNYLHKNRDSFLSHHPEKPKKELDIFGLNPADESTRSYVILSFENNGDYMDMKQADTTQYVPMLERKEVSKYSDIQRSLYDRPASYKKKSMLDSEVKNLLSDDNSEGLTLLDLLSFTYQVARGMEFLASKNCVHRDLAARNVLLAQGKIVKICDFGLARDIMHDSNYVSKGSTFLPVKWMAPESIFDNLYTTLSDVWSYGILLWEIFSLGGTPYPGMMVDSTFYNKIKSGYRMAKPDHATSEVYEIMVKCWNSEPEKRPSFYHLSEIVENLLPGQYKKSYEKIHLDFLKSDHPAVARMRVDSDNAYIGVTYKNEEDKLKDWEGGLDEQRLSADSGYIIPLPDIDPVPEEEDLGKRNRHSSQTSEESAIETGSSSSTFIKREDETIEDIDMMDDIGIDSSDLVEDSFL

[18] = biological target: T1, Epidermal growth factor receptor; assay: Inhibition of EGFR (unknown origin) at 1 uM relative to control
[19] = tested on: Epidermal growth factor receptor (Homo sapiens), P00533 [L858R,T790M,C797S]; assay: Inhibition of EGFR L858R/T790M/C797S triple mutant (unknown origin) at 1 uM relative to control
[20] = biological target: RAC-alpha serine/threonine-protein kinase (Homo sapiens) (UniProt P31749); assay: Inhibition of AKT1 (unknown origin) at 1 uM relative to control
RAC-alpha serine/threonine-protein kinase (Homo sapiens), sequence (P31749 whole entry): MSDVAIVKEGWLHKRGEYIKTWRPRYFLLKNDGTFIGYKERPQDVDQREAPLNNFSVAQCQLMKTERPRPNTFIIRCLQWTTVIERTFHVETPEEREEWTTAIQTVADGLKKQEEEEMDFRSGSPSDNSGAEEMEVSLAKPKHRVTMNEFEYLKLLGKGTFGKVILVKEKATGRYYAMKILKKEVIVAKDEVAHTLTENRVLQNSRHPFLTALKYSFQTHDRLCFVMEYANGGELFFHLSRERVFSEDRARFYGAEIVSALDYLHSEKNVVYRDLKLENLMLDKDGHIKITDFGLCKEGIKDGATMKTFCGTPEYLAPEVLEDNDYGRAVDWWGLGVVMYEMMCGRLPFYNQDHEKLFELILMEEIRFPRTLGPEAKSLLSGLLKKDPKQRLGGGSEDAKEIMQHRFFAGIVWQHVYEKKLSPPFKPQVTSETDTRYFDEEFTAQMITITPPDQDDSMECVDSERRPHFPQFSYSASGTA

[21] = biological target: Tyrosine-protein kinase receptor UFO (Homo sapiens) (UniProt P30530); assay: Inhibition of AXL (unknown origin) at 1 uM relative to control
[22] = biological target: Focal adhesion kinase 1 (Homo sapiens) (UniProt Q05397); assay: Inhibition of FAK (unknown origin) at 1 uM relative to control
[23] = biological target: Tyrosine-protein kinase ITK/TSK (Homo sapiens) (UniProt Q08881); assay: Inhibition of ITK (unknown origin) at 1 uM relative to control
[24] = tested on: Serine/threonine-protein kinase B-raf (Homo sapiens), P15056 [V600E]; assay: Inhibition of BRAF V600E mutant (unknown origin) at 1 uM relative to control
[25] = biological target: Cyclin-dependent kinase 4/cyclin D1 (Homo sapiens) (UniProt P11802+P24385); assay: Inhibition of CDK4/CyclinD1 (unknown origin) at 1 uM relative to control; format: protein-complex assay
[26] = biological target: Tyrosine-protein kinase JAK2 (Homo sapiens, UniProt O60674); assay: Inhibition of JAK2 (unknown origin)
[27] = biological target: T2, Proto-oncogene tyrosine-protein kinase ROS; assay: Inhibition of ROS1 (unknown origin)
[28] = biological target: Receptor-type tyrosine-protein kinase FLT3 (Homo sapiens, UniProt P36888); assay: Inhibition of FLT3 (unknown origin)
[29] = biological target: T3, Platelet-derived growth factor receptor alpha; assay: Inhibition of PDGFRalpha (unknown origin)
[30] = Reductive activation in PBS at pH 7.4 assessed as A14-1 metabolite formation at 1 uM incubated for 30 mins in presence of cysteine, NADPH and nitroreductase under N2 condition by MS/MS analysis; format: ADME; details: buffer, pH 7.4, 0.5 h
[31] = Reductive activation in PBS at pH 7.4 assessed as 2-amino-3-[2-amino-5-[amino(carboxy)methyl]sulfanyl-1-[2-[2-[2-methoxy-5-[[4-(1-methylindol-3-yl)pyrimidin-2-yl]amino]phenoxy]ethoxy]ethyl]imidazol-4-yl]sulfanyl-propanoic acid metabolite formation at 1 uM incubated for 30 mins in presence of cysteine, NADPH and nitroreductase under N2 condition by MS/MS analysis; format: ADME; details: buffer, pH 7.4, 0.5 h
[32] = Reductive activation in PBS at pH 7.4 assessed as hydroxylamine intermediate formation at 1 uM incubated for 30 mins in presence of cysteine, NADPH and nitroreductase under hypoxia condition by MS/MS analysis; details: buffer, pH 7.4, 0.5 h
[33] = Reductive activation in PBS at pH 7.4 assessed as A14-1 metabolite formation at 1 uM incubated for 30 mins in presence of cysteine, NADPH and nitroreductase under hypoxia condition by MS/MS analysis; format: ADME; details: buffer, pH 7.4, 0.5 h
[34] = Reductive activation in PBS at pH 7.4 assessed as A14-1 metabolite formation at 1 uM incubated for 30 mins in presence of cysteine, NADPH and nitroreductase under normoxia condition by MS/MS analysis; format: ADME; details: buffer, pH 7.4, 0.5 h
[35] = Reductive activation in PBS at pH 7.4 assessed as 2-amino-3-[2-amino-5-[amino(carboxy)methyl]sulfanyl-1-[2-[2-[2-methoxy-5-[[4-(1-methylindol-3-yl)pyrimidin-2-yl]amino]phenoxy]ethoxy]ethyl]imidazol-4-yl]sulfanyl-propanoic acid metabolite formation at 1 uM incubated for 30 mins in presence of cysteine, NADPH and nitroreductase under normoxia condition by MS/MS analysis; format: ADME; details: buffer, pH 7.4, 0.5 h
[36] = biological target: 3-phosphoinositide-dependent protein kinase 1 (Homo sapiens) (UniProt O15530); assay: Inhibition of PDK1 (unknown origin) at 1 uM relative to control

T1 sequence (P00533 whole entry): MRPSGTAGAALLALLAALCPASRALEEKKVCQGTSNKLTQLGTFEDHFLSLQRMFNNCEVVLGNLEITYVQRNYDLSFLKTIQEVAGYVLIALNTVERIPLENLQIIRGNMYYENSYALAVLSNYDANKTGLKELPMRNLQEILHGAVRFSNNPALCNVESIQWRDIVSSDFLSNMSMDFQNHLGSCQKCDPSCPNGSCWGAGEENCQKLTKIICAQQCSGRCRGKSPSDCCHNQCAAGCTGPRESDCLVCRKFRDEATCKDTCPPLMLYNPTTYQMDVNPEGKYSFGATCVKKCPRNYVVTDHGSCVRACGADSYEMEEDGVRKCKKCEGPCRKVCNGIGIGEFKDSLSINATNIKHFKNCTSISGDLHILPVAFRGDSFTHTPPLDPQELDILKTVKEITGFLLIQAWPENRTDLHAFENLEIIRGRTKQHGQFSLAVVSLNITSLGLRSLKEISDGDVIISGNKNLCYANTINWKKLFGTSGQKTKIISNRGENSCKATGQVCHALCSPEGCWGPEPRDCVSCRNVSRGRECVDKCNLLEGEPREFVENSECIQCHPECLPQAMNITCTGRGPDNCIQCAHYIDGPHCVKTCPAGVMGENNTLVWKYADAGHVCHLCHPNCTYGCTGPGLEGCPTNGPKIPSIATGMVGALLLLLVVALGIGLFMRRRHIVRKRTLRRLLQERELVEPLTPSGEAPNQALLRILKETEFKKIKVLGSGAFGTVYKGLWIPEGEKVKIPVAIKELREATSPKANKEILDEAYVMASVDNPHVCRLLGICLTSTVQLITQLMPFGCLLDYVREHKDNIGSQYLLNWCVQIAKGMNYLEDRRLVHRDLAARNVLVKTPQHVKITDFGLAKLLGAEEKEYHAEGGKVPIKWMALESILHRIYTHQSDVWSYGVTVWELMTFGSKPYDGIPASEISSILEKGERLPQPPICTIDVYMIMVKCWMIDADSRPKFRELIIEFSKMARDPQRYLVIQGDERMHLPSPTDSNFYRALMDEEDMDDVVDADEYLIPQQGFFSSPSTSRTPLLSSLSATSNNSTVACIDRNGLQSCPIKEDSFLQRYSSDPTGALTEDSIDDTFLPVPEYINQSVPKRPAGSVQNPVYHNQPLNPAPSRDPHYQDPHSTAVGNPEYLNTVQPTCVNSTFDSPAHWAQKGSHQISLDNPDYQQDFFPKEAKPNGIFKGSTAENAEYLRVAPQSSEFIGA

SMILES: COc1ccc(Nc2nccc(-c3cn(C)c4ccccc34)n2)cc1OCCOCCn1ccnc1[N+](=O)[O-]
- IC50 [1]: 177 nM
- IC50 [2]: 1570 nM
- IC50 [3]: 4.66 nM
- Ratio IC50 [4]: 5.63
- IC50 [5]: 25 nM
- inhibition [6]: -7.07%
- inhibition [7]: 17%
- inhibition [8]: 29%
- inhibition [9]: 43.2%
- inhibition [10]: 26.6%
- inhibition [11]: 62.7%
- inhibition [12]: 84.7%
- inhibition [13]: 90.5%
- inhibition [14]: 27.4%
- inhibition [15]: 85.7%
- inhibition [16]: 42.7%
- inhibition [17]: 88.2%
- inhibition [18]: 34.8%
- inhibition [19]: 50.9%
- inhibition [20]: 11.5%
- inhibition [21]: 44.3%
- inhibition [22]: 9%
- inhibition [23]: 27.9%
- inhibition [24]: 65.4%
- inhibition [25]: 8.02%
- IC50 [26]: 30.9 nM
- IC50 [27]: 107 nM
- IC50 [28]: 108 nM
- IC50 [29]: 42.5 nM
- Drug metabolism [30]: Metabolite_Detected
- Drug metabolism [31]: Metabolite_Detected
- Drug metabolism [32]: Metabolite_Detected
- Drug metabolism [33]: Metabolite_Detected
- Drug metabolism [34]: Metabolite_Notdetected
- Drug metabolism [35]: Metabolite_Notdetected
- inhibition [36]: 8%

— ChEMBL document CHEMBL5325467, “Discovery of novel hypoxia-activated, nitroimidazole constructed multi-target kinase inhibitors on the basis of AZD9291 for the treatment of human lung cancer” (Bioorg Med Chem, 2023)
